From patent US12391664B2, “GluN2C/D subunit selective antagonists of the N-methyl-D-aspartate receptor” (Emory University, priority 2018, dated 2025)
Where two headings read alike, the source gives them in different places. Marks after values point to notes of the source that are not given here.

Tests used:
[1] = biological target: T1, recombinant rat GluN1/GluN2A (Rattus norvegicus, UniProt Q00959); experiment: Two-electrode voltage-clamp recordings in Xenopus laevis oocytes, GluN2A; assay type: cell-based; settings: for GluN2A IC50: oocytes, 100 μM glutamate and 30 μM glycine; for I3 μM/Icontrol (mean ± SEM, %) GluN2A: 3 μM compound with 100 μM glutamate and 30 μM glycine, control set as 1
T1 construct: expressed in transfected cells; host or cells: Xenopus laevis oocytes injected with cRNA (GluN1:GluN2 ratio 1:2)
T1 sequence (Q00959 23-1464, other chains not shown): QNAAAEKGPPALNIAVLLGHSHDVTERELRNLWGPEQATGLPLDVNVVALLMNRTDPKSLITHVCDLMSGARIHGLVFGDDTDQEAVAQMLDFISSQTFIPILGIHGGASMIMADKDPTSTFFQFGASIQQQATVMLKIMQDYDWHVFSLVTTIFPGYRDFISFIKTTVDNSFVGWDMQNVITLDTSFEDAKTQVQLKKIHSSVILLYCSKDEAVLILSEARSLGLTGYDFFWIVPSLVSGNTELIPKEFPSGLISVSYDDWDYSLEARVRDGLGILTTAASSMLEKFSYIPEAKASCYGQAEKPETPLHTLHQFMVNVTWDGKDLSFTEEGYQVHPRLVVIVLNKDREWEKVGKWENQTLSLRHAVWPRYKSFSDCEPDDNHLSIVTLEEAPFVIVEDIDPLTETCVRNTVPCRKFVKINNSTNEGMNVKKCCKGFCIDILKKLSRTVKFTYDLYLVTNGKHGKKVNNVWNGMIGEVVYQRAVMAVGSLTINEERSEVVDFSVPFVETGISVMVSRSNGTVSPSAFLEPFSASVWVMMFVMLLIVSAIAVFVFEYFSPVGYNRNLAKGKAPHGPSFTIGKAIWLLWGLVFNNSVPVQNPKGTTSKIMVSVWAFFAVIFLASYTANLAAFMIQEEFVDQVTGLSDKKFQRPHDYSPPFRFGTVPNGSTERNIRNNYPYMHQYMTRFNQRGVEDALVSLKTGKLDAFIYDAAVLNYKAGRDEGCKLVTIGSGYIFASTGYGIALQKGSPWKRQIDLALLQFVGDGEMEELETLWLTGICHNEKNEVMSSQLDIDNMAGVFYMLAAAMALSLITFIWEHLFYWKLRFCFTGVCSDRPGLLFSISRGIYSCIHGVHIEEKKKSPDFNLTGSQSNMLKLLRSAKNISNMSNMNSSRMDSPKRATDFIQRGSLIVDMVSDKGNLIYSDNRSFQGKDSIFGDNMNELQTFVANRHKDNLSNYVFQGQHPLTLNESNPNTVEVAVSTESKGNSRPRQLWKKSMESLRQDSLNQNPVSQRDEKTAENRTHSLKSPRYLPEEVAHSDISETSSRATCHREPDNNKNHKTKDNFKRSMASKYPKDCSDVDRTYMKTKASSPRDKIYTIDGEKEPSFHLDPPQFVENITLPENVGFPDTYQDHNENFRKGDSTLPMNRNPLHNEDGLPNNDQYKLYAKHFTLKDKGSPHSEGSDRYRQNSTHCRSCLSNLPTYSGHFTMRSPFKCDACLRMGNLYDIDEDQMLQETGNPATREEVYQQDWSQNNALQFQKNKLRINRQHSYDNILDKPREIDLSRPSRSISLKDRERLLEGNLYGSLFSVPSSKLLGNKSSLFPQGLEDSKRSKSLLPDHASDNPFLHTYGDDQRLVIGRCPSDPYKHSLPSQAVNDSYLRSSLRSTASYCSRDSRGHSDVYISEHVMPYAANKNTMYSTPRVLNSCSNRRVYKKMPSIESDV
Method in brief: (§1)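 Oocytes injected with rat GluN1/GluN2 cRNA (1:2), held 2–5 days at 15–17 °C, clamped at −40 mV in Ba2+-containing recording solution, pH 7.4, 23 °C. Compounds applied (up to 100 μM) with 100 μM glutamate plus 30 μM glycine. IC50 and Hill slope from concentration-response fits of averaged current inhibition.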

[2] = biological target: T2, recombinant rat GluN1/GluN2B (Rattus norvegicus, UniProt Q00960); experiment: Two-electrode voltage-clamp recordings in Xenopus laevis oocytes, GluN2B; assay type: cell-based; settings: for GluN2B IC50: oocytes, 100 μM glutamate and 30 μM glycine; for I3 μM/Icontrol (mean ± SEM, %) GluN2B: 3 μM compound with 100 μM glutamate and 30 μM glycine, control set as 1
T2 construct: expressed in transfected cells; host or cells: Xenopus laevis oocytes injected with cRNA (GluN1:GluN2 ratio 1:2)
T2 sequence (Q00960 27-1482, other chains not shown): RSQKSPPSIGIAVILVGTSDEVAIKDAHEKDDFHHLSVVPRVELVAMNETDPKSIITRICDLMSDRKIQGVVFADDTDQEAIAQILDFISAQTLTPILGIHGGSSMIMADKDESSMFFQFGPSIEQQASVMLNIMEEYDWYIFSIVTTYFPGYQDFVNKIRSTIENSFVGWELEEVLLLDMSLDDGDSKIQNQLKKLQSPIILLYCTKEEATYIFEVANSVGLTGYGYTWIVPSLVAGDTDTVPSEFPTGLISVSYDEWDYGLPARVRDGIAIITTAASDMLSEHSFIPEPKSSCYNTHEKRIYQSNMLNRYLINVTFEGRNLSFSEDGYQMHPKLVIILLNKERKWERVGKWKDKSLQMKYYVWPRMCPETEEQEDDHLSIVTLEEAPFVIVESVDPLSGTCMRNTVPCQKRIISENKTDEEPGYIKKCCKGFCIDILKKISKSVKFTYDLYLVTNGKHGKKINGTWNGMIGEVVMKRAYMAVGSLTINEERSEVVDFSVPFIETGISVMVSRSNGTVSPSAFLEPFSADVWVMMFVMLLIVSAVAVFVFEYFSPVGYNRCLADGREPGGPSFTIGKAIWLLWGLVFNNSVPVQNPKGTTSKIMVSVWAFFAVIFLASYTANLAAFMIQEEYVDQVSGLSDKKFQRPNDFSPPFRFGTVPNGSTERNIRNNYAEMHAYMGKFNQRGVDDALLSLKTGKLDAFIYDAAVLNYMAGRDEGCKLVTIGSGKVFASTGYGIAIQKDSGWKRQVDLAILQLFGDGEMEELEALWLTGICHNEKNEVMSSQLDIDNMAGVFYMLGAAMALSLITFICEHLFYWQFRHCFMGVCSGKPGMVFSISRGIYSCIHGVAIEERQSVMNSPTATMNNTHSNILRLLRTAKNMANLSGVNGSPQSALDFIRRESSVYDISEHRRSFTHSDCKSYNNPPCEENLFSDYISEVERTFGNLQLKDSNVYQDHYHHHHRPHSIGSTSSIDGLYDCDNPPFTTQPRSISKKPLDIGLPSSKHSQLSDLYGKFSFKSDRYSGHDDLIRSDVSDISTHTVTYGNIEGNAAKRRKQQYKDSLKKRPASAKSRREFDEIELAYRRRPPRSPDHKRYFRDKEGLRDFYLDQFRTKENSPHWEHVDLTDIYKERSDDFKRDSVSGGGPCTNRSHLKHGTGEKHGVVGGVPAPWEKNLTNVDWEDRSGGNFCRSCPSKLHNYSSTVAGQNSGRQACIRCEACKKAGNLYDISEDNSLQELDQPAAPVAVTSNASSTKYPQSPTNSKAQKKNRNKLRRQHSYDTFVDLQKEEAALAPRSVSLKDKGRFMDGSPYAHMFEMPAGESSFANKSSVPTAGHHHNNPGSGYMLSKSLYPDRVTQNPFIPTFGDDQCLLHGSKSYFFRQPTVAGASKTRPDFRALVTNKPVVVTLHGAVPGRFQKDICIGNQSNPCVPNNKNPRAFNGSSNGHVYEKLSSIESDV
Method in brief: as §1

[3] = biological target: T3, recombinant rat GluN1/GluN2C (Rattus norvegicus, UniProt Q00961); experiment: Two-electrode voltage-clamp recordings in Xenopus laevis oocytes, GluN2C; assay type: cell-based; settings: for GluN2C IC50: oocytes, 100 μM glutamate and 30 μM glycine; for I3 μM/Icontrol (mean ± SEM, %) GluN2C: 3 μM compound with 100 μM glutamate and 30 μM glycine, control set as 1
T3 construct: expressed in transfected cells; host or cells: Xenopus laevis oocytes injected with cRNA (GluN1:GluN2 ratio 1:2)
Method in brief: as §1

[4] = biological target: T4, recombinant rat GluN1/GluN2D (Rattus norvegicus, UniProt Q62645); experiment: Two-electrode voltage-clamp recordings in Xenopus laevis oocytes, GluN2D; assay type: cell-based; settings: for GluN2D IC50: oocytes, 100 μM glutamate and 30 μM glycine
T4 construct: expressed in transfected cells; host or cells: Xenopus laevis oocytes injected with cRNA (GluN1:GluN2 ratio 1:2)
Method in brief: as §1

[5] = test system: recombinant GluN2A-D subunits; experiment: Two-electrode voltage-clamp recordings, statements on all receptors; assay type: cell-based, rat
Description: All target compounds were evaluated for activity by the Traynelis laboratory at Emory University using two-electrode voltage-clamp recordings performed in Xenopus laevis oocytes expressing recombinant GluN2A-D subunits (Table 1). […] Two ester compounds 997-65 and 997-66 also performed no inhibition at GluN2A to GluN2D receptors. […] Consequently, for the compounds that Acker et al. already published, it was necessary to increase the concentration to 100 μM when collecting data for a concentration effect curve. […] Therefore, under this condition, we can only conclude that compound 997-67 remained potent at GluN2C/D-containing receptors, but its selectivity over GluN2A- and GluN2B-containing receptors could not be compared to 997-57. […] Finally, replacing the carboxylic acid to the bio-isostere amide yielded compounds 997-96 and 997-115, which dropped the potency 2- to 4-fold in comparison to their corresponding acids 997-74 and 997-114.
Two-electrode voltage-clamp recordings were performed in Xenopus laevis oocytes that were injected with mRNA to express recombinant rat GluN1/GluN2A, GluN1/GluN2B, GluN1/GluN2C, and GluN1/GluN2D. The recordings using unfertilized oocytes from Xenopus laevis were permitted by Emory University Institutional Animal Care and Use Committee (IACUC). An automatic injector (Nanoject II, Drummond Scientific) was used for cRNA injection using the pipettes filled with mineral oil. The cRNA that transcribed in vitro via the mMessage Machine kit (Ambion) was diluted with nuclease-free water, and then injected at GluN1/GluN2 with a ratio of 1:2. The oocytes were stored in Barth's solution that contained 88 mM NaCl, 5.0 mM Tris-HCl, 2.4 mM NaHCO3, 1.0 mM KCl, 0.84 mM MgSO4, 0.41 mM CaCl2, 0.33 mM Ca(NO3)2, 0.1 mg/ml gentamycin sulfate, 1.0 U/ml penicillin, and 1 μg/ml streptomycin at a pH of 7.4 and temperatures of 15-17° C. for two to five days before the two-electrode voltage-clamp recordings. When recording, the oocytes were placed in a perfusion chamber and continually washed with the recording solution comprised of 90 mM NaCl, 1.0 mM KCl, 0.50 mM BaCl2, 0.005 mM EDTA, and 10 mM HEPES at a pH of 7.4 and a temperature of 23° C. Glass electrodes with a tip resistance of 0.5 to 2.5 MΩ were obtained from thin-walled glass capillary tubes. Voltage electrodes and current electrodes were filled with 0.3 M and 3.0 M KCl, respectively. The recordings were executed with the oocytes membrane potential holding at −40 m V by an OC-725 amplifier (Warner Instrument Co). All compounds were dissolved in dimethyl sulfoxide (DMSO) as 20 mM stock solutions and future diluted to reach the desired concentration (0.05-0.5% (vol/vol) DMSO) in recording solution comprised of 30 μM glycine and 100 μM glutamate. Each compound was recorded 3-7 times in the least 4 oocytes from at least 2 different Xenopus laevis.
To evaluate the inhibition of compounds, the concentration-response curve was fitted with the average two-electrode voltage-clamp recording results with the equation
[formula] • where IC50 is the concentration of compounds that inhibit half maximal of the current response and N is the Hill slope.

[6] = biological target: T5, recombinant rat GluN1/GluN2A (Rattus norvegicus, UniProt P35439+Q00959); experiment: Two-electrode voltage-clamp recordings in Xenopus laevis oocytes, GluN2A; assay type: cell-based; settings: oocytes, 100 μM glutamate and 30 μM glycine
T5 construct: expressed in transfected cells; host or cells: Xenopus laevis oocytes injected with cRNA (GluN1:GluN2 ratio 1:2)
Method in brief: as §1

[7] = biological target: T6, recombinant rat GluN1/GluN2B (Rattus norvegicus, UniProt P35439+Q00960); experiment: Two-electrode voltage-clamp recordings in Xenopus laevis oocytes, GluN2B; assay type: cell-based; settings: oocytes, 100 μM glutamate and 30 μM glycine
T6 construct: expressed in transfected cells; host or cells: Xenopus laevis oocytes injected with cRNA (GluN1:GluN2 ratio 1:2)
T6 sequence (Q00960 27-1482, other chains not shown): as above
Method in brief: as §1

[8] = biological target: T7, recombinant rat GluN1/GluN2C (Rattus norvegicus, UniProt P35439+Q00961); experiment: Two-electrode voltage-clamp recordings in Xenopus laevis oocytes, GluN2C; assay type: cell-based
T7 construct: expressed in transfected cells; host or cells: Xenopus laevis oocytes injected with cRNA (GluN1:GluN2 ratio 1:2)
Method in brief: as §1

[9] = biological target: T8, recombinant rat GluN1/GluN2D (Rattus norvegicus, UniProt P35439+Q62645); experiment: Two-electrode voltage-clamp recordings in Xenopus laevis oocytes, GluN2D; assay type: cell-based
T8 construct: expressed in transfected cells; host or cells: Xenopus laevis oocytes injected with cRNA (GluN1:GluN2 ratio 1:2)
Method in brief: as §1

[10] = mean IC50 with bottom and top 95% confidence interval, read-out: Avg. GluN2C IC50 (95% CI)
[11] = oocytes, 100 μM glutamate and 30 μM glycine, read-out: GluN2C IC50
[12] = mean IC50 with bottom and top 95% confidence interval, read-out: Avg. GluN2D IC50 (95% CI)
[13] = oocytes, 100 μM glutamate and 30 μM glycine, read-out: GluN2D IC50

Row | SMILES | GluN2A IC50 [1] | GluN2B IC50 [2] | GluN2C IC50 [3] | GluN2D IC50 [4] | activity at all receptors (GluN2A to GluN2D), in words [5] | IC50 [6] [nM] | IC50 [7] [nM] | IC50 [8, 11] [nM] | IC50 [9, 13] [nM] | 2B IC50 / 2D IC50 ([4]; ratio of IC50 values) | other results
1 | O=C(O)CC(F)(F)C(=O)N1N=C(c2ccccc2-c2ccc(Cl)cc2)CC1c1cccc2c1OCO2 (stereo not drawn) [997-119, 4-(5-(benzo[d][1,3]dioxol-4-yl)-3-(4′-chloro-[1,1′-biphenyl]-2-yl)-4,5-dihydro-1H-pyrazol-1-yl)-3,3-difluoro-4-oxobutanoic acid] | NE (NE indicates less than 50% inhibition at 30 μM.) | NE (NE indicates less than 50% inhibition at 30 μM.) | NE (NE indicates less than 50% inhibition at 30 μM.) | NE (NE indicates less than 50% inhibition at 30 μM.) | inactive |  |  |  |  |  | 
2 | Cc1ccc2[nH]c(=O)c(C3=NN(C(=O)C(F)(F)CC(=O)O)C(c4ccc(Cl)cc4)C3)c(-c3ccc(Cl)cc3)c2c1 (single isomer, unassigned; (-)) [(−)-997-90] |  |  |  |  |  | 1900 | 1900 | 200 | 130 |  | I3 μM/Icontrol (mean ± SEM, %) GluN2A ([1]; listed as (−)-90): 33 ± 4.5%; I3 μM/Icontrol (mean ± SEM, %) GluN2B ([2]; listed as (−)-90): 34 ± 5.0%; IC50 [8, 10]: 210 nM; I3 μM/Icontrol (mean ± SEM, %) GluN2C ([3]; listed as (−)-90): 7.0 ± 2.2%; IC50 [9, 12]: 130 nM; I3 μM/Icontrol (mean ± SEM, %) GluN2D ([4]; 3 μM compound with 100 μM glutamate and 30 μM glycine, control set as 1): 3.4 ± 1.2%
3 | O=C(O)CCC(=O)N1N=C(c2c(-c3ccc(Cl)cc3)c3ccccc3[nH]c2=O)CC1c1cccnc1 (stereo not drawn) [997-83, 4-(3-(4-(4-chlorophenyl)-2-oxo-1,2-dihydroquinolin-3-yl)-5-(pyridin-3-yl)-4,5-dihydro-1H-pyrazol-1-yl)-4-oxobutanoic acid] | NE (NE indicates less than 50% inhibition at 30 μM.) | NE (NE indicates less than 50% inhibition at 30 μM.) | NE (NE indicates less than 50% inhibition at 30 μM.) | NE (NE indicates less than 50% inhibition at 30 μM.) | inactive |  |  |  |  |  | 
4 | O=C(O)CC(F)(F)C(=O)N1N=C(c2ccccc2-c2cccc(F)c2)CC1c1ccc(Cl)cc1 (stereo not drawn) [997-100, 4-(5-(4-chlorophenyl)-3-(3′-fluoro-[1,1′-biphenyl]-2-yl)-4,5-dihydro-1H-pyrazol-1-yl)-3,3-difluoro-4-oxobutanoic acid] | NE (NE indicates less than 50% inhibition at 30 μM.) | NE (NE indicates less than 50% inhibition at 30 μM.) | NE (NE indicates less than 50% inhibition at 30 μM.) | NE (NE indicates less than 50% inhibition at 30 μM.) | lost the activity |  |  |  |  |  | 
5 | O=c1[nH]c2ccccc2c(-c2ccc(Cl)cc2)c1C1=NNC(c2ccc(Cl)cc2)C1 (stereo not drawn) [997-70, 4-(4-chlorophenyl)-3-[5-(4-chlorophenyl)-4,5-dihydro-1H-pyrazol-3-yl]quinolin-2(1H)-one] | NE (NE indicates less than 50% inhibition at 30 μM.) | NE (NE indicates less than 50% inhibition at 30 μM.) | NE (NE indicates less than 50% inhibition at 30 μM.) | NE (NE indicates less than 50% inhibition at 30 μM.) | inactive |  |  |  |  |  | 
6 | Cc1ccc2[nH]c(=O)c(C3=NN(C(=O)C(F)(F)CC(=O)O)C(c4ccc(Cl)cc4)C3)c(-c3ccc(Cl)cc3)c2c1 (single isomer, unassigned; (+)) [(+)-997-90] |  |  |  |  |  | 4100 | 1800 | 2100 | < 1000 |  | I3 μM/Icontrol (mean ± SEM, %) GluN2A ([1]; listed as (+)-90): 72 ± 2.9%; I3 μM/Icontrol (mean ± SEM, %) GluN2B ([2]; listed as (+)-90): 53 ± 3.6%; IC50 [8, 10]: 2100 nM; I3 μM/Icontrol (mean ± SEM, %) GluN2C ([3]; listed as (+)-90): 36 ± 3.0%; IC50 [9, 12]: 660 nM; I/Icontrol (mean ± SEM, %) GluN2D, data with ** ([4]; 1 μM compound with 100 μM glutamate and 30 μM glycine, control set as 1): 31 ± 9.8** %
7 | O=C(O)/C=C(/F)C(=O)N1N=C(c2c(-c3ccc(Cl)cc3)c3ccccc3[nH]c2=O)CC1c1ccc(Cl)cc1 (stereo not drawn) [997-101, (E)-4-(5-(4-chlorophenyl)-3-(4-(4-chlorophenyl)-2-oxo-1,2-dihydroquinolin-3-yl)-4,5-dihydro-1H-pyrazol-1-yl)-3-fluoro-4-oxobut-2-enoic acid] |  |  |  |  |  | 3000 | 11000 | 70 |  | 183 | IC50 ([9]; read-out: IC50 at GluN2D-containing receptors): 60 nM; selectivity at GluN2D- over GluN2A-containing receptor [4]: 50 fold; 2A IC50 / 2D IC50 ([4]; ratio of IC50 values): 50
8 | O=C(O)CC(F)(F)C(=O)N1N=C(c2ccccc2-c2ccc(Cl)cc2)CC1c1ccc(OC(F)(F)F)cc1 (stereo not drawn) [997-117, 4-(3-(4′-chloro-[1,1′-biphenyl]-2-yl)-5-(4-(trifluoromethoxy)phenyl)-4,5-dihydro-1H-pyrazol-1-yl)-3,3-difluoro-4-oxobutanoic acid] |  |  |  |  |  | 17200 | 8790 | 3440 | 2870 | 3 | 
9 | O=C(O)CC(F)(F)C(=O)N1N=C(c2ccccc2-c2ccc(Cl)cc2)CC1c1ccc(Cl)s1 (stereo not drawn) [997-118, 4-(3-(4′-chloro-[1,1′-biphenyl]-2-yl)-5-(5-chlorothiophen-2-yl)-4,5-dihydro-1H-pyrazol-1-yl)-3,3-difluoro-4-oxobutanoic acid] |  |  |  |  |  | 9010 | 12000 | 3690 | 3740 | 3 | 
